Reference: patent US6489351B1, “Condensed 4,5,6,7-tetrahydrobenzo[C]thiophenes as enhancer for cell differentation induction factor action” (Takeda Chemical Industries, Ltd., priority 1996, dated 2002)

Key:
[1] = system: Mouse-derived osteoblast strain MC3T3-E1; assay: Alkaline phosphatase production induction capability in mouse osteoblast strain; assay type: cell-based; settings: compound 10^−5 M, 72 hours, mean±S.E.; for Alkaline Phosphate Activity (A405 × 1,000), BMP Added (3 ng/ml): 3 ng/ml BMP-4/7 heterodimer, control 397 ± 30 (Experiment 4), 420 ± 1 (Experiment 5); for Alkaline Phosphate Activity (A405 × 1,000), BMP Not Added: no BMP, control 135 ± 2 (Experiment 4), 141 ± 8 (Experiment 5)
Procedure: Mouse-derived osteoblast strain MC3T3-E1 in α-MEM containing 10% fetal calf serum (FCS) was seeded to 96-well plates (8,000 cells/well); two days later, the sample, previously diluted with a medium containing or not containing 3 ng/ml BMP-4/7 of heterodimer (described in EP-A-0626451) to each concentration shown in Table 2, was added to the cells reaching a confluent state, followed by cultivation for 72 hours. After each plate was once washed with saline, substrate solution was added, followed by incubation at room temperature for 15 minutes. The reaction was stopped by 0.05 N sodium hydroxide, and the absorbance at 405 nm was determined. The values obtained are given in mean±S.E. in Table 2. The data were statistically analyzed by Student's t-test.

[2] = system: stromal cells prepared from the femoral marrow of a normal rat; assay: Osteogenesis-promoting action: alkaline phosphatase activity in rat femoral marrow stromal cells; assay type: cell-based; settings: mean±SE
Procedure: Using stromal cells prepared from the femoral marrow of a normal rat, alkaline phosphatase activity was determined as an index of osteogenesis. Specifically, stromal cells, prepared from the femoral marrow of a 7-week-old male Sprague-Dawley rat by the method of Maniatopoulos et al. [Cell Tissue Research, Vol. 254, p. 317 (1988)], were cultured in an α-MEM (minimum essential medium) solution containing both dexamethasone (10^−7 M) and β-glycerophosphoric acid (10^−2 M) to obtain calcified osteoid tissue. […] After washing with phosphate buffer, the cells were homogenized with 0.2% Nonidet P-40 and centrifuged at 3,000 rpm for 10 minutes. The resulting supernatant was assayed for alkaline phosphatase activity by the method of Lowry et al. [Journal of Biological Chemistry, Vol. 207, p. 19 (1954)]. The values obtained are given in mean±SE in Table 1. The data-were statistically analyzed by Student's t-test.

[3] = compound 10^−5 M, control 694.9 ± 22.7 (Experiment 1), 608.4 ± 20.9 (Experiment 2)
[4] = compound 10^−6 M, Experiment 3, control 63.1 ± 5.0

Structure (SMILES)	melting point	also measured
CCOP(=O)(Cc1ccc(NC(=O)c2cc3c(s2)-c2c(SC)sc(C(=O)Nc4ccc(CP(=O)(OCC)OCC)cc4)c2CC3)cc1)OCC	262 to 263 °C	–
CCOC(=O)c1sc(SC)c2c1CCC(NC(C)=O)C2=O (stereo not shown) [Example 11, ethyl 5-acetylamino-4,5,6,7-tetrahydro-3-methylthio-4-oxobenzo[c]thiophene-1-carboxylate]	215 to 216 °C	–
CCOC(=O)c1sc(SC(C)C)c2c1CCC(NC(C)=O)C2=O (stereo not shown) [Example 12, ethyl 5-acetylamino-4,5,6,7-tetrahydro-3-isopropylthio-4-oxobenzo[c]thiophene-1-carboxylate]	170 to 171 °C	–
CCCSc1sc(C(=O)OCC)c2c1C(=O)C(NC(=O)CC)CC2 (stereo not shown) [Example 13, ethyl 4,5,6,7-tetrahydro-4-oxo-5-propionylamino-3-propylthiobenzo[c]thiophene-1-carboxylate]	191 to 192 °C	–
CCOC(=O)c1sc(SC)c2c1CCc1nc(C)oc1-2 [Example 17, ethyl 4,5-dihydro-2-methyl-8-methylthiothieno[3,4-g]benzoxazole-6-carboxylate]	131 to 132 °C	–
CCOC(=O)c1sc(SC(C)C)c2c1CCc1nc(C)oc1-2 [Example 18, ethyl 4,5-dihydro-8-isopropylthio-2-methylthieno[3,4-g]benzoxazole-6-carboxylate]	62 to 63 °C	–
Cc1nc2c(o1)-c1c(SC(C)C)sc(C(=O)O)c1CC2 [Example 33, 4,5-dihydro-8-isopropylthio-2-methylthieno[3,4-g]benzoxazole-6-carboxylic acid]	277 to 278 °C	–
CSc1sc(C(N)=O)c2c1-c1oc(C)nc1CC2 [Example 46]	–	Alkaline Phosphatase Activity (nmol p-nitrophenol/min/well) [2, 3]: 1,916.8 ± 26.3 nmol p-nitrophenol/min/well
Cc1nc2c(o1)-c1c(SC(C)C)sc(C(N)=O)c1CC2 [Example 47, 4,5-dihydro-8-isopropylthio-2-methylthieno[3,4-g]benzoxazole-6-carboxamide]	230 to 231 °C	Alkaline Phosphate Activity (A405 × 1,000), BMP Added (3 ng/ml) [1]: 886 ± 35 A405 × 1,000; Alkaline Phosphate Activity (A405 × 1,000), BMP Not Added [1]: 202 ± 21 A405 × 1,000
CCOC(=O)c1sc(SC)c2c1CCC(C=O)=C2Cl [Example 69, ethyl 4-chloro-5-formyl-6,7-dihydro-3-methylthiobenzo[c]thiophene-1-carboxylate]	79 to 80 °C	–
CCOC(=O)CSC1=C(C=O)CCc2c(C(=O)OCC)sc(SC)c21 [Example 70, ethyl 4-ethoxycarbonylmethylthio-5-formyl-6,7-dihydro-3-methylthiobenzo[c]thiophene-1-carboxylate]	102 to 103 °C	–
CCOC(=O)c1cc2c(s1)-c1c(SC)sc(C(=O)OCC)c1CC2 [Example 71, diethyl 4,5-dihydro-8-methylthiobenzo[2,1-c:3,4-b′]dithiophene-2,6-dicarboxylate]	107 to 108 °C	–
CSc1sc(C(=O)Nc2cccnc2)c2c1-c1nc(-c3ccccc3)sc1CC2 [Example 92, N-(3-pyridyl)-4,5-dihydro-8-methylthio-2-phenylthieno[3,4-e]benzothiazole-6-carboxamide]	230 to 231 °C	Alkaline Phosphatase Activity (nmol p-nitrophenol/min/well) [2, 4]: 111.4 ± 2.1 nmol p-nitrophenol/min/well

Second part, led by results:

melting point	Structure (SMILES)	also measured
143 to 144 °C	CCOC(=O)c1sc(SC)c2c1CCc1sc(C)nc1-2 [Example 1, ethyl 4,5-dihydro-2-methyl-8-methylthiothieno[3,4-e]benzothiazole-6-carboxylate]	–
153 to 154 °C	CCOC(=O)c1sc(SC)c2c1CCc1sc(-c3ccccc3)nc1-2 [Example 2, ethyl 4,5-dihydro-8-methylthio-2-phenylthieno[3,4-e]benzothiazole-6-carboxylate]	–
125 to 126 °C	CCCSc1sc(C(=O)OCC)c2c1-c1nc(-c3ccccc3)sc1CC2 [Example 3, ethyl 4,5-dihydro-2-phenyl-8-propylthiothieno[3,4-e]benzothiazole-6-carboxylate]	–
170 to 171 °C	CCOC(=O)c1oc(SC)c2c1CCc1sc(-c3ccccc3)nc1-2 [Example 4, ethyl 4,5-dihydro-8-methylthio-2-phenylfuro[3,4-e]benzothiazole-6-carboxylate]	–
218 to 219 °C	CCOC(=O)c1sc(SC)c2c1CCc1nc(-c3ccccc3)[nH]c1-2 [Example 21, ethyl 4,5-dihydro-8-methylthio-2-phenylthieno[3,4-e]benzimidazole-6-carboxylate]	–
273 to 274 °C	CSc1sc(C(=O)O)c2c1-c1nc(C)sc1CC2 [Example 22, 4,5-dihydro-2-methyl-8-methylthiothieno[3,4-e]benzothiazole-6-carboxylic acid]	–
255 to 256 °C (dec.)	CSc1sc(C(=O)O)c2c1-c1nc(-c3ccccc3)sc1CC2 [Example 23, 4,5-dihydro-8-methylthio-2-phenylthieno[3,4-e]benzothiazole-6-carboxylic acid]	–
236 to 237 °C (dec.)	CCCSc1sc(C(=O)O)c2c1-c1nc(-c3ccccc3)sc1CC2 [Example 24, 4,5-dihydro-2-phenyl-8-propylthiothieno[3,4-e]benzothiazole-6-carboxylic acid]	–
269 to 270 °C	CSc1sc(C(N)=O)c2c1-c1nc(C)sc1CC2 [Example 36, 4,5-dihydro-2-methyl-8-methylthiothieno[3,4-e]benzothiazole-6-carboxamide]	Alkaline Phosphate Activity (A405 × 1,000), BMP Added (3 ng/ml) [1]: 618 ± 13 A405 × 1,000; Alkaline Phosphate Activity (A405 × 1,000), BMP Not Added [1]: 181 ± 6 A405 × 1,000
203 to 204 °C	CCCSc1sc(C(N)=O)c2c1-c1nc(-c3ccccc3)sc1CC2 [Example 37, 4,5-dihydro-2-phenyl-8-propylthiothieno[3,4-e]benzothiazole-6-carboxamide]	–
211 to 212 °C	CCNC(=O)c1sc(SC)c2c1CCc1sc(-c3ccccc3)nc1-2 [Example 50, N-ethyl-4,5-dihydro-8-methylthio-2-phenylthieno[3,4-e]benzothiazole-6-carboxamide]	Alkaline Phosphatase Activity (nmol p-nitrophenol/min/well) [2, 3]: 1,463 ± 33.4 nmol p-nitrophenol/min/well
175 to 176 °C	CCNC(=O)c1sc(SC)c2c1CCc1nc(C)oc1-2 [Example 55]	–
206 to 207 °C	CSc1sc(C(N)=O)c2c1-c1[nH]c(-c3ccccc3)nc1CC2 [Example 68, 4,5-dihydro-8-methylthio-2-phenylthieno[3,4-e]benzimidazole-6-carboxamide]	–
215 to 217 °C	CSc1sc(C(=O)O)c2c1-c1sc(-c3ccccc3)cc1CC2 [Example 75, 4,5-dihydro-8-methylthio-2-phenylbenzo[2,1-c:3,4-b′]dithiophene-6-carboxylic acid]	–
192 to 193 °C	CSc1sc(C(N)=O)c2c1-c1sc(-c3ccccc3)cc1CC2 [Example 76, 4,5-dihydro-8-methylthio-2-phenylbenzo[2,1-c:3,4-b′]dithiophene-6-carboxamide]	–
236 to 237 °C	CSc1sc(C(=O)NCc2ccc3c(c2)OCO3)c2c1-c1nc(-c3ccccc3)sc1CC2 [Example 90, N-(3,4-methylenedioxybenzyl)-4,5-dihydro-8-methylthio-2-phenylthieno[3,4-e]benzothiazole-6-carboxamide]	Alkaline Phosphatase Activity (nmol p-nitrophenol/min/well) [2, 4]: 102.9 ± 7.3 nmol p-nitrophenol/min/well
189 to 190 °C	CSc1sc(C(=O)NCc2ccncc2)c2c1-c1nc(-c3ccccc3)sc1CC2 [Example 91, N-(4-pyridylmethyl)-4,5-dihydro-8-methylthio-2-phenylthieno[3,4-e]benzothiazole-6-carboxamide]	Alkaline Phosphatase Activity (nmol p-nitrophenol/min/well) [2, 4]: 123.2 ± 5.7 nmol p-nitrophenol/min/well
157 to 158 °C	CON(C)C(=O)c1sc(SC)c2c1CCc1sc(-c3ccccc3)nc1-2 [Example 93, N-methoxy-N-methyl-4,5-dihydro-8-methylthio-2-phenylthieno[3,4-e]benzothiazole-6-carboxamide]	Alkaline Phosphatase Activity (nmol p-nitrophenol/min/well) [2, 4]: 159.9 ± 17.5 nmol p-nitrophenol/min/well
